According to patent publication US11555180B2, “Methods and apparatuses for patient-derived micro-organospheres” (Xilis, Inc., priority 2019, dated 2023):

Assays:
[1] = system: tumor Micro-Organospheres; test: drug screen on Patient-Derived Micro-Organospheres formed from a patient tumor biopsy; type: cell-based; conditions: for percent survival of the Micro-Organospheres in the presence of the drug: Example 3, FIG. 23B, 23C
Description: The Patient-Derived Micro-Organospheres described herein may be used in a variety of different assays, and in particular may be used to determine drug formulation effects, including toxicity, on normal and/or abnormal (e.g., cancerous) tissue. For example, drug screening may include applying Micro-Organospheres into all or some wells of multi-well (e.g., a 96-well) plate. Alternatively custom plates may be used (e.g., a 10,000 micro-well array may be formed of a 100 × 100 wells). The Micro-Organospheres (e.g., gel droplets) may be applied into, or in some variations onto the multiple microwell arrays and incubated with culture medium. The Micro-Organospheres may be cultured over the course of 3-5 days. In some variations, on day 5, the wells (e.g., micro-reactors) may then be dosed with drug compounds, e.g., based on a set of FDA-approved anticancer drugs, to examine the effects of the drug panel. For example, the drugs texted may be based on the National Cancer Institute (Division of Cancer Treatment and Diagnosis (11)) screen, consisting of 147 agents intended to enable cancer research, drug discovery and combination drug studies. On Day 7, the Micro-Organospheres may be imaged via standard fluorescent microscopy and ranked based on drug response.
In this example, the screening assay may be automated. This may enable repeatable and automated workflow, which may increase the number of drugs screened from a few to hundreds. FIGS. 17A-17E illustrate one example of this workflow. In FIG. 17A, a tumor biopsy is taken and a plurality (e.g., >10,000) Micro-Organospheres are formed as described above (in FIG. 17A the junction region forming the Micro-Organospheres is illustrated).
The workflow shown in FIGS. 17A-17E may enable an integrated device to be used for growing, dosing and/or reviewing the Micro-Organospheres. […] Their response to drug treatments, such as IC-50, cytotoxicity, and growth curves, may be measured to identify effective therapeutics against the patient's tumor.

patient tumor = test: actual response of the patient's tumor to treatment with the drug; type: in vivo
Method: In a similar set of experiments, Micro-Organospheres were generated from biopsy material (FIG. 23A), and a drug effect screen was performed using the resulting Micro-Organospheres. […] Thus, the Micro-Organospheres correlated strongly with patient response to the standard of care drugs. In this case, the patient endured six months of side effects and toxicities that may have been avoided by the predicted response from the Micro-Organospheres, indicating (within 7-10 days from the biopsy) that the tumor would not respond to these drugs.

traditional cell line = test: traditional (2D) tumor cell line dosed with drug; type: cell-based; conditions: Example 2, FIG. 22A, all dose ranges examined
Description: As mentioned above, the Patient-Derived Micro-Organospheres and methods of using them to screen for drug compositions may be used to accurately predict the response of a patient tumor to one or more drug therapies. […] For example, in FIG. 22A-22D, the Micro-Organospheres, but not a cell line, was able to correlate with patient response.

SMILES | percent survival of the Micro-Organospheres in the presence of the drug [1] | tumor response to treatment (patient tumor; Example 2, FIG. 22C (before) and 22D (post treatment)) | patient response to treatment (patient tumor; Example 3, treated with both Oxalipalatin and Irinotecan, after 6 months of treatment) | cell survival of tumor Micro-Organospheres ([1]; Example 2, FIG. 22B) | effect of the drug on the cell line (traditional cell line)
CCc1c2c(nc3ccc(OC(=O)N4CCC(N5CCCCC5)CC4)cc13)-c1cc3c(c(=O)n1C2)COC(=O)[C@]3(O)CC [Irinotecan] | lack of effect | – | – | – | –
O=C1[O][Pt]2([NH][C@@H]3CCCC[C@H]3[NH]2)[O]C1=O [Oxaliplatin] | no change in the percent survival | responded to treatment | no response | significant decreases in cell survival | no effect
